# Laboratory results published in article PMC11062899, “De novo development of small cyclic peptides that are orally bioavailable” (Nature Chemical Biology, 2023).
# “And” between values parts separate entries of the source, which are not always exact repeats. Equal values may be shown once.
# Assays:
# [1] = Peptide stability in simulated intestinal fluid (SIF); type: in vitro ADME, porcine; conditions: simulated gi fluid; 8 h, 37 °C, pH 6.8; read-out: Proteolytic stability: SIF (8 h) % remaining
# In short: (§1)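 Peptide from a 1 mM DMSO stock was added to fluid pre-warmed at 37 °C. SGF was pH 1.2 NaCl with porcine pepsin (0.32 g per 100 ml), and SIF was pH 6.8 potassium phosphate with porcine pancreatin (1 g per 100 ml). Supernatant peptide was quantified by LC–MS, with residual expressed as T1/T0.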
# porcine pancreatin = assay: as above; type: in vitro ADME; conditions: after 8 h vs 0 h (TIC)
# In short: as §1
# [2] = Metabolic stability in rat liver microsomes (RLMs); conditions: rat, microsomes; for half-life: 0-60 min
# porcine pepsin = target: T1, porcine pepsin (Sus scrofa, UniProt P00791); assay: Peptide stability in simulated gastric fluid (SGF); type: in vitro ADME
# T1 construct: 0.32 g of porcine pepsin (Sigma-Aldrich, P7125) was dissolved under gentle agitation; purchased Sigma-Aldrich P7125
# T1 sequence (P00791 60-385): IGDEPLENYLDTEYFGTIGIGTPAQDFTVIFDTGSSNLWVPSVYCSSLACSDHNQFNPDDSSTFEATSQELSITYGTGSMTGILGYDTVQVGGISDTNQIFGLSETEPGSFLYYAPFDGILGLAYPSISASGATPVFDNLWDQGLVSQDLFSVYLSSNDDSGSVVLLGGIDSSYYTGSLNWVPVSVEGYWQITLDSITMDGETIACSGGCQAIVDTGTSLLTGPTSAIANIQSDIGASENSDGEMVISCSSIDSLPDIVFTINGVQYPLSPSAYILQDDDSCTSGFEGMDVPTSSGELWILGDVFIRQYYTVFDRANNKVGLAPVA
# In short: as §1
# human α-thrombin = human α-thrombin (Homo sapiens, UniProt P00734); assay: Protease inhibition, Ki for human α-thrombin (fluorogenic substrate Z-Gly-Gly-Arg-AMC); type: biochemical; conditions: replicates R1-R3
# In short: (§2)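 Ki derived through Cheng–Prusoff from IC50s (four-parameter logistic fit) against activity of peptide-free controls. Product fluorescence was read every 3 min over 30 min at 25 °C, substrate Z-Gly-Gly-Arg-AMC at 50 μM. Enzyme was 2 nM human or 3 nM rat α-thrombin, pH 7.4 buffer.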
# rat α-thrombin = target: T2, rat α-thrombin (Rattus norvegicus, UniProt P18292); assay: Protease inhibition, Ki for rat α-thrombin (fluorogenic substrate Z-Gly-Gly-Arg-AMC); type: biochemical; conditions: replicates R1-R3
# T2 construct: rat α-thrombin (Molecular Innovations) were used at final concentrations of 2 nM and 3 nM; purchased Molecular Innovations
# In short: as §2
# [3] = Passive artificial membrane permeability (PAMPA)
# Procedure: The plate system consisted of a 96-well microwell plate (donor wells) and a 96-well insert containing a PVDF membrane coated with tri-layers of phospholipids (acceptor wells). Permeability was measured from the bottom plate (donor wells) to the top insert (acceptor wells). Cyclic peptide or reference compound solutions were prepared at a concentration of 50 μM in PBS buffer (pH 7.4) containing 5% DMSO, and 300 μl of the resulting solutions was placed into the donor wells of the PAMPA plate. Acceptor wells were prepared by adding 200 μl of PBS buffer (pH 7.4) containing 5% DMSO. The insert was stacked onto the donor plate, and the system was covered with a lid to avoid evaporation. […] Additionally, 3:2 dilutions of the 50 μM cyclic peptide stocks were prepared in PBS buffer (pH 7.4) containing 5% DMSO to yield a sample corresponding to the theoretical equilibrium between donor and acceptor wells. The samples were run on the LC–MS to measure the cyclic peptide concentration representing maximum permeability. Permeability percent was calculated using equation (4) below.4 Permeability%=PeptideAcceptor/PeptideEquilibrated×100 where [PeptideAcceptor] represents the AUC measured on the LC–MS for the acceptor wells, and [PeptideEquilibrated] represents the AUC measured for the samples diluted to the theoretical equilibrium. Detection limit for the assay was typically at 1% permeability.
# Papp values were calculated using equation (5).5 Papp=VD×VA/VD+VA×A×t×−ln1−PeptideAcceptor/PeptideEquilibrated where VD and VA are the volumes of donor and acceptor wells, respectively; A is the area of the membrane; and t is the incubation time.
# [4] = peptide 1.33E+02 uM, slope of proteolytic substrate cleavage over time
structure (smiles),measurement,setting,value
O=C(N[C@H]1CSCc2cccc(n2)CSCCNC(=O)[C@H](Cc2c[nH]cn2)NC(=O)C2(CCCC2)NC1=O)c1ccc(Cl)s1 [compound 29],remaining at 8 h,[1],92 ± 16%
same,"SIF stability, Residual peptide Average",porcine pancreatin; average of R1-R3,92.07
same,"SIF stability, Residual peptide",porcine pancreatin; single replicates R1-R3,101.03 and 73.69 and 101.48
same,microsomal CLint,"[2]; CL (ul/min/mg protein) R1, RLM CL, replicate R1",10.5 µL/min/mg
same,microsomal CLint,"[2]; CL (ul/min/mg protein) R2, RLM CL, replicate R2",5.63 µL/min/mg
same,microsomal CLint,"[2]; CL (ul/min/mg protein) R3, RLM CL, replicate R3",8.11 µL/min/mg
same,half-life,"[2]; Half Life (min) R1, RLM metabolic stability, replicate R1",> 1 h
same,half-life,"[2]; Half Life (min) R2, RLM metabolic stability, replicate R2",> 1 h
same,half-life,"[2]; Half Life (min) R3, RLM metabolic stability, replicate R3",> 1 h
same,microsomal CLint,"[2]; Metabolic stability: RLM CL (ul/min/mg), RLMs, mean and SD, three measurements",8.1 ± 2 µL/min/mg
same,"SGF stability, Residual peptide Average","porcine pepsin; after 8 h vs 0 h (TIC), average of R1-R3",100.77
same,"SGF stability, Residual peptide","porcine pepsin; after 8 h vs 0 h (TIC), single replicates R1-R3",105.91 and 102.30 and 94.11
same,remaining at 8 h,"porcine pepsin; simulated gi fluid, 8 h, 37 °C, pH 1.2, read-out: Proteolytic stability: SGF (8 h) % remaining",101 ± 8%
same,"Human alpha thrombin inhibition, slope normalized to DMSO",human α-thrombin; peptide 1.02E-03 uM,85.3 and 95.8 and 95.4
same,"Human alpha thrombin inhibition, slope normalized to DMSO",human α-thrombin; peptide 1.04E+00 uM,95.4 and 93.0 and 98.3
same,"Human alpha thrombin inhibition, slope normalized to DMSO",human α-thrombin; peptide 1.27E-04 uM,99.0 and 98.5 and 95.5
same,"Human alpha thrombin inhibition, slope normalized to DMSO",human α-thrombin; peptide 1.30E-01 uM,95.8 and 97.3 and 101.8
same,"Human alpha thrombin inhibition, slope normalized to DMSO",human α-thrombin; [4],27.0 and 31.2 and 38.6
same,"Human alpha thrombin inhibition, slope normalized to DMSO",human α-thrombin; peptide 1.63E-02 uM,73.4 and 96.6 and 101.4
same,"Human alpha thrombin inhibition, slope normalized to DMSO",human α-thrombin; peptide 1.67E+01 uM,71.8 and 71.9 and 74.8
same,"Human alpha thrombin inhibition, slope normalized to DMSO",human α-thrombin; peptide 2.03E-03 uM,97.6 and 95.9 and 99.5
same,"Human alpha thrombin inhibition, slope normalized to DMSO",human α-thrombin; peptide 2.08E+00 uM,93.5 and 84.6 and 95.9
same,"Human alpha thrombin inhibition, slope normalized to DMSO",human α-thrombin; peptide 2.54E-04 uM,96.0 and 96.2 and 102.6
same,"Human alpha thrombin inhibition, slope normalized to DMSO",human α-thrombin; peptide 2.60E-01 uM,94.7 and 95.0 and 96.9
same,"Human alpha thrombin inhibition, slope normalized to DMSO",human α-thrombin; peptide 3.18E-05 uM,99.1 and 98.5 and 101.4
same,"Human alpha thrombin inhibition, slope normalized to DMSO",human α-thrombin; peptide 3.26E-02 uM,99.8 and 95.1 and 95.9
same,"Human alpha thrombin inhibition, slope normalized to DMSO",human α-thrombin; peptide 3.33E+01 uM,58.8 and 60.9 and 67.1
same,"Human alpha thrombin inhibition, slope normalized to DMSO",human α-thrombin; peptide 4.07E-03 uM,99.1 and 95.8 and 99.3
same,"Human alpha thrombin inhibition, slope normalized to DMSO",human α-thrombin; peptide 4.17E+00 uM,86.3 and 86.6 and 97.3
same,"Human alpha thrombin inhibition, slope normalized to DMSO",human α-thrombin; peptide 5.09E-04 uM,101.5 and 95.7 and 97.4
same,"Human alpha thrombin inhibition, slope normalized to DMSO",human α-thrombin; peptide 5.21E-01 uM,92.8 and 93.8 and 98.4
same,"Human alpha thrombin inhibition, slope normalized to DMSO",human α-thrombin; peptide 6.36E-05 uM,106.0 and 98.0 and 105.2
same,"Human alpha thrombin inhibition, slope normalized to DMSO",human α-thrombin; peptide 6.51E-02 uM,96.1 and 98.8 and 99.3
same,"Human alpha thrombin inhibition, slope normalized to DMSO",human α-thrombin; peptide 6.67E+01 uM,48.6 and 47.5 and 55.0
same,"Human alpha thrombin inhibition, slope normalized to DMSO",human α-thrombin; peptide 8.14E-03 uM,95.7 and 98.2 and 99.1
same,"Human alpha thrombin inhibition, slope normalized to DMSO",human α-thrombin; peptide 8.33E+00 uM,83.7 and 83.2 and 97.0
same,"Rat alpha thrombin inhibition, slope normalized to DMSO",rat α-thrombin; [4],11.0 and 10.6 and 9.7
same,"Rat alpha thrombin inhibition, slope normalized to DMSO",rat α-thrombin; peptide 1.67E+01 uM,45.8 and 45.5 and 45.1
same,"Rat alpha thrombin inhibition, slope normalized to DMSO",rat α-thrombin; peptide 2.08E+00 uM,86.8 and 87.3 and 87.0
same,"Rat alpha thrombin inhibition, slope normalized to DMSO",rat α-thrombin; peptide 3.33E+01 uM,28.5 and 28.7 and 27.9
same,"Rat alpha thrombin inhibition, slope normalized to DMSO",rat α-thrombin; peptide 4.17E+00 uM,77.5 and 87.0 and 76.0
same,"Rat alpha thrombin inhibition, slope normalized to DMSO",rat α-thrombin; peptide 6.67E+01 uM,19.6 and 18.1 and 18.5
same,"Rat alpha thrombin inhibition, slope normalized to DMSO",rat α-thrombin; peptide 8.33E+00 uM,63.7 and 62.1 and 64.2
same,PAMPA permeability: % permeability,"[3]; 50 μM, 12–18 h, acceptor concentration relative to equilibrium",0.16 ± 0.08%
same,Papp at 50 μM,"[3]; PAMPA, pH 7.4",0.00933 ×10⁻⁶ cm/s
same,Permeability% Average,"[3]; PAMPA, average of R1-R3",0.157%
same,Permeability% R1,"[3]; PAMPA, replicate R1, TIC of top well sample relative to sample at theoretical equilibrium",0.22%
same,Permeability% R3,"[3]; PAMPA, replicate R3, TIC of top well sample relative to sample at theoretical equilibrium",0.18%
